Results: PubChem BioAssay AID2060330 (Molecular Pharmacology Branch, DTP, NCI, 2025)

Tested on: LG0703-F948-PDC spheroids with HUVEC/MSC, viability
Experiment: Anticancer human tumor LG0703-F948-PDC patient-derived lung adenocarcinoma cell line growth inhibition [IpAb]
Conditions: for IC50: curve of first compound; for viability, T/C: stronger effect = lower value
Outline: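 Multi-cell spheroids of 60% tumour cells, 25% HUVEC and 15% MSC in ultra-low-attachment U-bottom wells, treated with agents combined with ipatasertib or abemaciclib. Half-log ranges top out near clinical Cmax, or 10 microM when Cmax is unknown.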

[1] = second compound 0.01 µM, first compound 0.0316 µM
[2] = second compound 0.01 µM, first compound 0.1 µM
[3] = second compound 0.01 µM, first compound 0.316 µM
[4] = second compound 0.01 µM, first compound 1 µM
[5] = second compound 0.01 µM, first compound 3.16 µM
[6] = second compound 0.01 µM, first compound 10 µM
[7] = second compound 0.0316 µM, first compound 0.0316 µM
[8] = second compound 0.0316 µM, first compound 0.1 µM
[9] = second compound 0.0316 µM, first compound 0.316 µM
[10] = second compound 0.0316 µM, first compound 1 µM
[11] = second compound 0.0316 µM, first compound 3.16 µM
[12] = second compound 0.0316 µM, first compound 10 µM
[13] = second compound 0.1 µM, first compound 0.0316 µM
[14] = second compound 0.1 µM, first compound 0.1 µM
[15] = second compound 0.1 µM, first compound 0.316 µM
[16] = second compound 0.1 µM, first compound 1 µM
[17] = second compound 0.1 µM, first compound 3.16 µM
[18] = second compound 0.1 µM, first compound 10 µM
[19] = second compound 0.316 µM, first compound 0.0316 µM
[20] = second compound 0.316 µM, first compound 0.1 µM
[21] = second compound 0.316 µM, first compound 0.316 µM
[22] = second compound 0.316 µM, first compound 1 µM
[23] = second compound 0.316 µM, first compound 3.16 µM
[24] = second compound 0.316 µM, first compound 10 µM
[25] = second compound 1 µM, first compound 0.0316 µM
[26] = second compound 1 µM, first compound 0.1 µM
[27] = second compound 1 µM, first compound 0.316 µM
[28] = second compound 1 µM, first compound 1 µM
[29] = second compound 1 µM, first compound 3.16 µM
[30] = second compound 1 µM, first compound 10 µM
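Also: spheroids exposed to compounds for seven days before readout.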
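For viability, T/C in this document: T/C percent relative to DMSO vehicle wells set as 100% viability.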

| Compound | IC50 (second compound 0.01 µM) [µM] | IC50 (second compound 0.0316 µM) [µM] | IC50 (second compound 0.1 µM) [µM] | IC50 (second compound 0.316 µM) [µM] | IC50 (second compound 1 µM) [µM] | viability, T/C [1] [%] | viability, T/C [2] [%] | viability, T/C [3] [%] | viability, T/C [4] [%] | viability, T/C [5] [%] | viability, T/C [6] [%] | viability, T/C [7] [%] | viability, T/C [8] [%] | viability, T/C [9] [%] | viability, T/C [10] [%] | viability, T/C [11] [%] | viability, T/C [12] [%] | viability, T/C [13] [%] | viability, T/C [14] [%] | viability, T/C [15] [%] | further results |
| --- | --- | --- | --- | --- | --- | --- | --- | --- | --- | --- | --- | --- | --- | --- | --- | --- | --- | --- | --- | --- | --- |
| Cc1nc(NC(=O)N2CCCC2C(N)=O)sc1-c1ccnc(C(C)(C)C(F)(F)F)c1 (stereo not given) + CCN1CCN(Cc2ccc(Nc3ncc(F)c(-c4cc(F)c5nc(C)n(C(C)C)c5c4)n3)nc2)CC1 | 1.48 | 1.12 | 0.676 | 0.955 | 0.421 | 93.3 | 88.1 | 81.3 | 61.2 | 28.8 | 3.09 | 95.3 | 78.9 | 64.9 | 60.9 | 25.5 | 2.8 | 83.6 | 83.2 | 49.9 | viability, T/C [16]: 46.4%; viability, T/C [17]: 33%; viability, T/C [18]: 3.21%; viability, T/C [19]: 81.9%; viability, T/C [20]: 79.3%; viability, T/C [21]: 60.9%; viability, T/C [22]: 50.8%; viability, T/C [23]: 30.6%; viability, T/C [24]: 9.55%; viability, T/C [25]: 75.8%; viability, T/C [26]: 65.5%; viability, T/C [27]: 40.8%; viability, T/C [28]: 50%; viability, T/C [29]: 32.6%; viability, T/C [30]: 12.4% |
| Cn1nccc1Nc1nccc(-c2ccn(C(CO)c3ccc(Cl)c(F)c3)c(=O)c2)n1 (stereo not given) + CCN1CCN(Cc2ccc(Nc3ncc(F)c(-c4cc(F)c5nc(C)n(C(C)C)c5c4)n3)nc2)CC1 | > 10 | 6.42 | > 10 | 7.43 | > 10 | 90.8 | 77 | 78.3 | 67.7 | 76.7 | 68 | 89.9 | 77.5 | 65 | 63 | 76.6 | 34.8 | 81.9 | 73.4 | 55.9 | viability, T/C [16]: 58.9%; viability, T/C [17]: 62.3%; viability, T/C [18]: 46.6%; viability, T/C [19]: 73%; viability, T/C [20]: 77.2%; viability, T/C [21]: 56.6%; viability, T/C [22]: 69.2%; viability, T/C [23]: 63.4%; viability, T/C [24]: 45.4%; viability, T/C [25]: 73.9%; viability, T/C [26]: 64.2%; viability, T/C [27]: 45.9%; viability, T/C [28]: 61.6%; viability, T/C [29]: 66.2%; viability, T/C [30]: 51% |
